Legend:
Experiment in all cases: relative viability (nuclei count vs DMSO), 5 days (fraction); higher = more cells survive
[1] = compound: C/C(=N\NC(=S)N1CCC1)/C2=CC=CC=N2 + Cc1cc(Nc2cc(N3CCN(C)CC3)nc(Sc3ccc(NC(=O)C4CC4)cc3)n2)n[nH]1 [Tozasertib] (partner 0.1 µM)
Method in brief: (§1)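 Medians of duplicate plates are given as relative viability. That measure is the nuclei count in treated wells divided by the count in vehicle wells. Counts were taken on 4× images of lung cancer cell lines in 1536-well plates, 5 days after pin-tool dosing the day after seeding with one drug alone or a fixed anchor-drug dose plus five library-drug doses (not always all listed) in √10 steps.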

[2] = compound: C/C(=N\NC(=S)N1CCC1)/C2=CC=CC=N2 + NC(=O)Nc1cc(-c2cccc(F)c2)sc1C(=O)N[C@H]1CCCNC1 [AZD7762] (partner 0.2 µM)
Method in brief: as §1

[3] = compound: C/C(=N\NC(=S)N1CCC1)/C2=CC=CC=N2 + CC(=O)Nc1cccc(-n2c(=O)n(C3CC3)c(=O)c3c(Nc4ccc(I)cc4F)n(C)c(=O)c(C)c32)c1 [Trametinib] (partner 0.02 µM)
Method in brief: as §1

[4] = compound: C/C(=N\NC(=S)N1CCC1)/C2=CC=CC=N2
Method in brief: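 Lung cancer cell lines in 1536-well plates were exposed by pinning to five library-drug doses (not always all listed) √10 apart, following an overnight hold at 37 °C. MetaXpress counted Hoechst-stained nuclei from 4× images taken after 5 days without medium change. Viability is the median ratio of treated-well to vehicle-well nuclei across plates. Plates required control CV below 25% and at least one doubling.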

Cell Line	relative viability ([1]; first compound 0.05 µM)	relative viability ([1]; first compound 0.1581 µM)	relative viability ([1]; first compound 0.5 µM)	relative viability ([1]; first compound 1.581 µM)	relative viability ([1]; first compound 5 µM)	relative viability ([2]; first compound 0.05 µM)	relative viability ([2]; first compound 0.1581 µM)	relative viability ([2]; first compound 0.5 µM)	relative viability ([2]; first compound 1.581 µM)	relative viability ([2]; first compound 5 µM)	relative viability ([3]; first compound 0.05 µM)	relative viability ([3]; first compound 0.1581 µM)	relative viability ([3]; first compound 0.5 µM)	relative viability ([3]; first compound 1.581 µM)	relative viability ([3]; first compound 5 µM)	relative viability ([4]; 0.05 µM)	relative viability ([4]; 0.1581 µM)	relative viability ([4]; 0.5 µM)	relative viability ([4]; 1.581 µM)	relative viability ([4]; 5 µM)
NCI-H1993	0.479	0.466	0.449	0.513	0.51	0.302	0.372	0.387	0.373	0.317	0.402	0.374	0.438	0.351	0.45	0.472	0.529	0.593	0.499	0.577
NCI-H838	0.148	0.143	0.137	0.133	0.129	0.579	0.684	0.653	0.616	0.637	0.156	0.167	0.157	0.11	0.136	0.247	0.255	0.279	0.179	0.185
NCI-H1437	0.144	0.138	0.157	0.133	0.102	0.353	0.278	0.243	0.239	0.176	0.23	0.241	0.194	0.16	0.208	0.242	0.235	0.206	0.173	0.155
NCI-H2170	0.659	0.334	0.197	0.113	0.141	0.298	0.178	0.153	0.126	0.1	0.684	0.869	0.186	0.174	0.109	0.391	0.282	0.268	0.198	0.176
NCI-H1648	0.275	0.216	0.229	0.309	0.233	0.337	0.305	0.269	0.288	0.297	0.408	0.403	0.289	0.302	0.31	0.317	0.278	0.25	0.317	0.304
LCLC-103H	0.244	0.175	0.202	0.133	0.165	0.272	0.219	0.27	0.185	0.262	0.303	0.622	0.324	0.357	0.256	0.336	0.331	0.347	0.335	0.357
NCI-H441	0.294	0.229	0.159	0.168	0.195	0.264	0.178	0.173	0.144	0.153	0.143	0.173	0.154	0.11	0.131	0.233	0.175	0.185	0.145	0.123
BEN	0.334	0.354	0.336	0.352	0.397	0.265	0.339	0.288	0.238	0.279	0.341	0.344	0.359	0.3	0.268	0.278	0.237	0.276	0.23	0.227
LC-2-ad	0.253	0.244	0.23	0.171	0.207	0.212	0.202	0.182	0.165	0.163	0.238	0.222	0.223	0.232	0.231	0.209	0.242	0.217	0.163	0.231
RERF-LC-KJ	0.203	0.208	0.246	0.217	0.242	0.176	0.238	0.18	0.16	0.208	0.242	0.241	0.204	0.222	0.214	0.263	0.262	0.252	0.244	0.248
SW 900	0.155	0.107	0.0961	0.14	0.178	0.188	0.122	0.0988	0.188	0.171	0.125	0.165	0.137	0.142	0.168	0.147	0.135	0.0841	0.127	0.188
NCI-H1915	0.178	0.137	0.129	0.131	0.139	0.16	0.114	0.134	0.119	0.122	0.0702	0.0677	0.0851	0.0919	0.112	0.237	0.216	0.199	0.179	0.178
NCI-H596	0.445	0.34	0.191	0.195	0.2	0.331	0.321	0.312	0.244	0.297	0.613	0.296	0.293	0.201	0.239	0.307	0.311	0.257	0.222	0.263
NCI-H2126	0.174	0.167	0.193	0.162	0.19	0.2	0.19	0.214	0.189	0.157	0.299	0.574	0.189	0.183	0.23	0.236	0.246	0.214	0.197	0.21
LXF-289	0.126	0.108	0.114	0.124	0.0738	0.212	0.266	0.218	0.124	0.116	0.284	0.553	0.206	0.221	0.176	0.276	0.313	0.278	0.292	0.119
HCC-44	0.359	0.309	0.257	0.246	0.231	0.702	0.573	0.488	0.445	0.47	0.869	0.987	0.409	0.491	0.397	0.351	0.279	0.299	0.246	0.24

Cell Line	relative viability ([1]; first compound 0.05 µM)	relative viability ([1]; first compound 0.1581 µM)	relative viability ([1]; first compound 0.5 µM)	relative viability ([1]; first compound 1.581 µM)	relative viability ([1]; first compound 5 µM)	relative viability ([2]; first compound 0.05 µM)	relative viability ([2]; first compound 0.1581 µM)	relative viability ([2]; first compound 0.5 µM)	relative viability ([2]; first compound 1.581 µM)	relative viability ([2]; first compound 5 µM)	relative viability ([3]; first compound 0.05 µM)	relative viability ([3]; first compound 0.1581 µM)	relative viability ([3]; first compound 0.5 µM)	relative viability ([3]; first compound 1.581 µM)	relative viability ([3]; first compound 5 µM)	relative viability ([4]; 0.05 µM)	relative viability ([4]; 0.1581 µM)	relative viability ([4]; 0.5 µM)	relative viability ([4]; 1.581 µM)	relative viability ([4]; 5 µM)
PC-14	0.0506	0.0536	0.0474	0.05	0.0386	0.08	0.12	0.106	0.0559	0.0985	0.0651	0.0788	0.0488	0.039	0.0546	0.0727	0.104	0.0714	0.0553	0.064
HOP-62	0.129	0.109	0.0803	0.104	0.0835	0.0756	0.0789	0.0592	0.0773	0.111	0.216	0.212	0.112	0.131	0.112	0.111	0.0963	0.114	0.11	0.114
NCI-H358	0.0651	0.0617	0.0695	0.0742	0.0612	0.174	0.217	0.16	0.15	0.18	0.1	0.0969	0.116	0.0973	0.097	0.132	0.125	0.143	0.119	0.114
NCI-H1666	0.35	0.33	0.301	0.3	0.305	0.304	0.398	0.352	0.3	0.331	0.545	0.558	0.495	0.467	0.5	0.433	0.404	0.369	0.349	0.329
NCI-H1355	0.186	0.169	0.17	0.172	0.163	0.168	0.17	0.135	0.146	0.155	0.22	0.191	0.136	0.176	0.17	0.204	0.216	0.21	0.197	0.214
HCC-827	0.383	0.36	0.225	0.185	0.148	0.14	0.176	0.104	0.106	0.172	0.377	0.269	0.211	0.214	0.176	0.44	0.359	0.316	0.275	0.205
HARA	0.0547	0.0677	0.0627	0.0539	0.0645	0.129	0.199	0.144	0.104	0.124	0.322	0.11	0.193	0.109	0.102	0.193	0.21	0.138	0.143	0.138
HCC-366	0.0183	0.0481	0.0208	0.0215	0.0265	0.0319	0.0257	0.0217	0.0308	0.0241	0.0818	0.0309	0.0211	0.0256	0.025	0.0382	0.0453	0.0381	0.0627	0.0401
NCI-H322M	0.271	0.27	0.241	0.313	0.364	0.316	0.333	0.381	0.37	0.414	0.451	0.45	0.424	0.43	0.423	0.337	0.337	0.352	0.329	0.35
NCI-H2347	0.173	0.254	0.177	0.244	0.258	0.192	0.235	0.218	0.198	0.244	0.247	0.271	0.244	0.294	0.227	0.315	0.346	0.34	0.256	0.313
NCI-H1975	0.105	0.0772	0.0873	0.101	0.0836	0.308	0.239	0.225	0.234	0.24	0.143	0.118	0.105	0.109	0.119	0.178	0.179	0.168	0.158	0.185
NCI-H522	–	0.292	0.296	–	0.407	0.307	0.279	0.24	0.292	0.397	0.367	0.334	0.241	0.271	0.364	0.334	0.389	0.351	0.346	0.358
A-427	0.1	0.0846	0.12	0.077	0.102	0.188	0.173	0.159	0.156	0.178	0.226	0.215	0.189	0.185	0.178	0.16	0.173	0.15	0.144	0.156
LCLC-97TM1	0.193	0.218	0.105	0.128	0.165	0.0761	0.0694	0.0641	0.0548	0.0577	0.0885	0.152	0.0765	0.0664	0.0773	0.0886	0.109	0.0593	0.0801	0.0822
HCC-15	0.0765	0.0513	0.112	0.0654	0.0641	0.084	0.084	0.105	0.113	0.103	0.151	0.23	0.117	0.0989	0.0939	0.0583	0.0886	0.0939	0.094	0.0906
NCI-H647	0.0603	0.0452	0.0549	0.0672	0.0612	0.0396	0.0606	0.048	0.0361	0.0379	0.0951	0.0887	0.127	0.114	0.13	0.114	0.116	0.136	0.115	0.0991
